Measurements as given in patent publication US20250368627A1, “PYRAZOLESULFONAMIDES AS ANTITUMOR AGENTS” (Peloton Therapeutics, Inc., a fully owned subsidiary of …, priority 2019, published 2025).

Columns and labels:
[1] = target: T1, DDB1DB/DCAF15 and RBM39 R1R2 complex (Homo sapiens, UniProt Q14498+Q66K64); test: DCAF15 RBM39 Complex Formation Assay (FRET); type: binding; conditions: FRET ratio Em 665/Em 615, incubated overnight at 4° C.
T1 construct: Amino acids 150 to 331 of RBM39 were cloned into pGEX4T3; GST (from vector pGEX4T3); TEV cleavage site (N); made in house; host or cells: DDB1DB/His-DCAF15: baculovirus/Sf9 co-expression; RBM39 R1R2: E. coli (pGEX4T3)
Method in brief: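 Ternary complex formation read by TR-FRET (Em 665/615, excitation 340 nm) after overnight incubation at 4° C of 20 nM baculovirus DDB1DB/His-DCAF15 and 50 nM E. coli RBM39 RRM1-RRM2 FLAG fragment with 14-point, 3-fold compound dilutions from 1 μM; EC50 from 4-parameter fit.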

[2] = tested on: HCT116 human colorectal carcinoma cells; test: CellTiter-Glo Luminescent Cell Viability Assay; type: cell-based; conditions: HCT-116, 72 h, 3 days
Method in brief: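 HCT116 cells were exposed for 3 days to compound in triplicate at final concentrations of 5 to 0.0002 […] (1:3 dilutions). Viability was read by CellTiter-Glo luminescence, and IC50 values were calculated.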

T1 sequence (Q66K64 whole entry, the tested form may be a part): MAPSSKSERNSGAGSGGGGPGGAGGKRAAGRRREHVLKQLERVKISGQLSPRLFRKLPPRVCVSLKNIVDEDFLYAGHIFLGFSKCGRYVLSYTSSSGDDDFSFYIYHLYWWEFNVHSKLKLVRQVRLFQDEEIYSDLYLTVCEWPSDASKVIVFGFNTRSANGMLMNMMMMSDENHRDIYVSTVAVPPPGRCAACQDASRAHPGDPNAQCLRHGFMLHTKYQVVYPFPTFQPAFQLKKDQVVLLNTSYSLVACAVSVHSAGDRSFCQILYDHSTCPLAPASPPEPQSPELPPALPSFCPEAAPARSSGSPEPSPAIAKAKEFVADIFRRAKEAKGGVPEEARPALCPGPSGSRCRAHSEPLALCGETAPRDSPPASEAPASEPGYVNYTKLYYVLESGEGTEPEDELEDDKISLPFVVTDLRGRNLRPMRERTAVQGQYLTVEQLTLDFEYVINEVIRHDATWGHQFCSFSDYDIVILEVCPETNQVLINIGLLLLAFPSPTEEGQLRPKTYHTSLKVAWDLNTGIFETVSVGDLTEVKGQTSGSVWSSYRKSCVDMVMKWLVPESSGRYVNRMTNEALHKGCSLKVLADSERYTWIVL
T1 sequence (Q14498 150-331): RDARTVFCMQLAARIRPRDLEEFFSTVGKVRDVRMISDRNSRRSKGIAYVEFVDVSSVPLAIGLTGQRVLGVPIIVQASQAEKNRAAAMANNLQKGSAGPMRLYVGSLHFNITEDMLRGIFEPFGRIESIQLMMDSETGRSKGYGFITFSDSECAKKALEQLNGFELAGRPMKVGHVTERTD
T1 sequence (Q16531 with tags, fused parts or gaps DEL396-708 partner): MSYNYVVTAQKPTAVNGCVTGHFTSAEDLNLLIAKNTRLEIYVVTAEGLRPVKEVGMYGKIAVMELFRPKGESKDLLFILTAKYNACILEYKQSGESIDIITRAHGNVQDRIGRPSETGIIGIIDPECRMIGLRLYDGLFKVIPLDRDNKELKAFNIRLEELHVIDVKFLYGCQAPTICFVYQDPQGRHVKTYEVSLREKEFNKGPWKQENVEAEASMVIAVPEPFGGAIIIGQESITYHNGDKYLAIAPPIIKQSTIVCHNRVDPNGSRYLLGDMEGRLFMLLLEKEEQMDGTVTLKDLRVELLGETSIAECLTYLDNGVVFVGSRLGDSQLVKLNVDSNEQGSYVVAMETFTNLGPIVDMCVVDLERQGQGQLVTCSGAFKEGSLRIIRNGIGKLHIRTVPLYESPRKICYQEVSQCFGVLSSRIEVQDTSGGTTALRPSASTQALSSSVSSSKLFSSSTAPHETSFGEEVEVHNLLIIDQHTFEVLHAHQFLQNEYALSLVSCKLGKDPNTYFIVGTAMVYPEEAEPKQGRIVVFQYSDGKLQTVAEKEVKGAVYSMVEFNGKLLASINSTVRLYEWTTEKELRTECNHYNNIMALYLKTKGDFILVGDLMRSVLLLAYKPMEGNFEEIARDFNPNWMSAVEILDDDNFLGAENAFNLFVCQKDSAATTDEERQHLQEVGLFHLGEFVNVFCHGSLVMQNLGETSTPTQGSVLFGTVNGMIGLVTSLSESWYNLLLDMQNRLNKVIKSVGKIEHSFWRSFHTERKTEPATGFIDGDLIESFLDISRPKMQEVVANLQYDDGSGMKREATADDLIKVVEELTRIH

Compound | IC50 [1] [nM] | EC50 [2] [nM]
CC(C)(C(N)=O)n1cc(S(=O)(=O)Nc2ccc(F)c3c(C#N)c[nH]c23)cn1 [Compound 240, 2-[4-[(3-cyano-4-fluoro-1H-indol-7-yl)sulfamoyl]pyrazol-1-yl]-2-methyl-propanamide] | < 250 | > 1000
Cc1ccc(NS(=O)(=O)c2cnn(C(C)CC(C)(C)O)c2)c2[nH]cc(C#N)c12 (stereo not shown) [Compound 242, N-(3-cyano-4-methyl-1H-indol-7-yl)-1-(3-hydroxy-1,3-dimethyl-butyl)pyrazole-4-sulfonamide] | < 250 | < 250
CC(CC(C)(C)O)n1cc(S(=O)(=O)Nc2ccc(Cl)c3c(C#N)c[nH]c23)cn1 (stereo not shown) [Compound 243, N-(4-chloro-3-cyano-1H-indol-7-yl)-1-(3-hydroxy-1,3-dimethyl-butyl)pyrazole-4-sulfonamide] | < 250 | 250 to 1000
Cc1ccc(NS(=O)(=O)c2cnn(C(C)(C)CO)c2Cl)c2[nH]cc(C#N)c12 [Compound 244, 5-chloro-N-(3-cyano-4-methyl-1H-indol-7-yl)-1-(2-hydroxy-1,1-dimethyl-ethyl)pyrazole-4-sulfonamide] | < 250 | < 250
CC(C)(CO)n1ncc(S(=O)(=O)Nc2ccc(F)c3c(C#N)c[nH]c23)c1Cl [Compound 245, 5-chloro-N-(3-cyano-4-fluoro-1H-indol-7-yl)-1-(2-hydroxy-1,1-dimethyl-ethyl)pyrazole-4-sulfonamide] | < 250 | 250 to 1000
Cc1ccc(NS(=O)(=O)c2cnn([C@@H](CO)CF)c2)c2[nH]cc(C#N)c12 [Compound 246, N-(3-cyano-4-methyl-1H-indol-7-yl)-1-[(1S)-1-(fluoromethyl)-2-hydroxy-ethyl]pyrazole-4-sulfonamide] | < 250 | 250 to 1000
N#Cc1c[nH]c2c(NS(=O)(=O)c3cnn([C@@H](CO)CF)c3)ccc(F)c12 [Compound 247] | < 250 | > 1000
N#Cc1c[nH]c2c(NS(=O)(=O)c3cnn(C[C@H](N)C(F)(F)F)c3)ccc(Cl)c12 [Compound 248, 1-[(2S)-2-amino-3,3,3-trifluoro-propyl]-N-(4-chloro-3-cyano-1H-indol-7-yl)pyrazole-4-sulfonamide] | < 250 | 250 to 1000
Cc1ccc(NS(=O)(=O)c2cnn(C[C@H](N)C(F)(F)F)c2)c2[nH]cc(C#N)c12 [Compound 249, 1-[(2S)-2-amino-3,3,3-trifluoro-propyl]-N-(3-cyano-4-methyl-1H-indol-7-yl)pyrazole-4-sulfonamide] | < 250 | 250 to 1000
Cc1ccc(NS(=O)(=O)c2cnn(CC3(F)CNC3)c2)c2[nH]cc(C#N)c12 [Compound 257, N-(3-cyano-4-methyl-1H-indol-7-yl)-1-[(3-fluoroazetidin-3-yl)methyl]pyrazole-4-sulfonamide] | < 250 | 250 to 1000
CC(C)(CO)n1cc(S(=O)(=O)Nc2ccc(Cl)c3c(C#N)c[nH]c23)c(Cl)n1 [Compound 260, 3-chloro-N-(4-chloro-3-cyano-1H-indol-7-yl)-1-(2-hydroxy-1,1-dimethyl-ethyl)pyrazole-4-sulfonamide] | < 250 | > 1000
COCC(CO)n1cc(S(=O)(=O)Nc2ccc(C)c3c(C#N)c[nH]c23)cn1 (stereo not shown) [Compound 263, N-(3-cyano-4-methyl-1H-indol-7-yl)-1-[1-(hydroxymethyl)-2-methoxy-ethyl]pyrazole-4-sulfonamide] | < 250 | 250 to 1000
C[C@@H](CO)n1cc(S(=O)(=O)Nc2ccc(Cl)c3c(C#N)c[nH]c23)cn1 [Compound 266, N-(4-chloro-3-cyano-1H-indol-7-yl)-1-[(1S)-2-hydroxy-1-methyl-ethyl]pyrazole-4-sulfonamide] | < 250 | 250 to 1000
C[C@@H](CO)n1cc(S(=O)(=O)Nc2ccc(F)c3c(C#N)c[nH]c23)cn1 [Compound 267, N-(3-cyano-4-fluoro-1H-indol-7-yl)-1-[(1S)-2-hydroxy-1-methyl-ethyl]pyrazole-4-sulfonamide] | < 250 | 250 to 1000
Cc1ccc(NS(=O)(=O)c2cnn(C3(CO)CC3)c2)c2[nH]cc(C#N)c12 [Compound 268, N-(3-cyano-4-methyl-1H-indol-7-yl)-1-[1-(hydroxymethyl)cyclopropyl]pyrazole-4-sulfonamide] | < 250 | < 250
N#Cc1c[nH]c2c(NS(=O)(=O)c3cnn(C4(CO)CC4)c3)ccc(Cl)c12 [Compound 269, N-(4-chloro-3-cyano-1H-indol-7-yl)-1-[1-(hydroxymethyl)cyclopropyl]pyrazole-4-sulfonamide] | < 250 | 250 to 1000
Cc1ccc(NS(=O)(=O)c2cnn(CCC(C)O)c2)c2[nH]cc(C#N)c12 (stereo not shown) [Compound 270, N-(3-cyano-4-methyl-1H-indol-7-yl)-1-(3-hydroxybutyl)pyrazole-4-sulfonamide] | < 250 | 250 to 1000
CCn1ncc(S(=O)(=O)Nc2ccc(C)c3c(C#N)c[nH]c23)c1N [Compound 271, 5-amino-N-(3-cyano-4-methyl-1H-indol-7-yl)-1-ethyl-pyrazole-4-sulfonamide] | < 250 | < 250

The remaining lines, values ahead:

IC50 [1] [nM] | EC50 [2] [nM] | Compound
< 250 | 250 to 1000 | Cc1ccc(NS(=O)(=O)c2cnn(C(C)(C)C(N)=O)c2)c2[nH]cc(C#N)c12 [Compound 241, 2-[4-[(3-cyano-4-methyl-1H-indol-7-yl)sulfamoyl]pyrazol-1-yl]-2-methyl-propanamide]
< 250 | < 250 | CC(C)(CO)n1ncc(S(=O)(=O)Nc2ccc(Cl)c3c(C#N)c[nH]c23)c1Cl [Compound 250, 5-chloro-N-(4-chloro-3-cyano-1H-indol-7-yl)-1-(2-hydroxy-1,1-dimethyl-ethyl)pyrazole-4-sulfonamide]
< 250 | 250 to 1000 | CC(C)(CO)n1ncc(S(=O)(=O)Nc2cccc3c(C#N)c[nH]c23)c1Cl [Compound 251, 5-chloro-N-(3-cyano-1H-indol-7-yl)-1-(2-hydroxy-1,1-dimethyl-ethyl)pyrazole-4-sulfonamide]
< 250 | 250 to 1000 | Cc1ccc(NS(=O)(=O)c2cn(C(C)(C)CO)nc2Cl)c2[nH]cc(C#N)c12 [Compound 252, 3-chloro-N-(3-cyano-4-methyl-1H-indol-7-yl)-1-(2-hydroxy-1,1-dimethyl-ethyl)pyrazole-4-sulfonamide]
< 250 | > 1000 | CC(C)(CO)n1cc(S(=O)(=O)Nc2cccc3c(C#N)c[nH]c23)c(Cl)n1 [Compound 253, 3-chloro-N-(3-cyano-1H-indol-7-yl)-1-(2-hydroxy-1,1-dimethyl-ethyl)pyrazole-4-sulfonamide]
< 250 | 250 to 1000 | CC(C)(C)OC(=O)N1CC(F)(Cn2cc(S(=O)(=O)Nc3ccc(Cl)c4c(C#N)c[nH]c34)cn2)C1 [Compound 254, tert-butyl 3-[[4-[(4-chloro-3-cyano-1H-indol-7-yl)sulfamoyl]pyrazol-1-yl]methyl]-3-fluoro-azetidine-1-carboxylate]
< 250 | 250 to 1000 | Cc1ccc(NS(=O)(=O)c2cnn(CC3(F)CN(C(=O)OC(C)(C)C)C3)c2)c2[nH]cc(C#N)c12 [Compound 255, tert-butyl 3-[[4-[(3-cyano-4-methyl-1H-indol-7-yl)sulfamoyl]pyrazol-1-yl]methyl]-3-fluoro-azetidine-1-carboxylate]
< 250 | > 1000 | N#Cc1c[nH]c2c(NS(=O)(=O)c3cnn(CC4(F)CNC4)c3)ccc(Cl)c12 [Compound 256, N-(4-chloro-3-cyano-1H-indol-7-yl)-1-[(3-fluoroazetidin-3-yl)methyl]pyrazol-4-sulfonamide]
< 250 | < 250 | Cc1ccc(NS(=O)(=O)c2cnn(CC(C)(C)CO)c2)c2[nH]cc(C#N)c12 [Compound 258, N-(3-cyano-4-methyl-1H-indol-7-yl)-1-(3-hydroxy-2,2-dimethylpropyl)-1H-pyrazole-4-sulfonamide]
< 250 | > 1000 | CC(C)(CO)n1cc(S(=O)(=O)Nc2ccc(F)c3c(C#N)c[nH]c23)c(Cl)n1 [Compound 261, 3-chloro-N-(3-cyano-4-fluoro-1H-indol-7-yl)-1-(2-hydroxy-1,1-dimethyl-ethyl)pyrazole-4-sulfonamide]
< 250 | 250 to 1000 | COCC(CO)n1cc(S(=O)(=O)Nc2ccc(Cl)c3c(C#N)c[nH]c23)cn1 (stereo not shown) [Compound 262, N-(4-chloro-3-cyano-1H-indol-7-yl)-1-[1-(hydroxymethyl)-2-methoxy-ethyl]pyrazole-4-sulfonamide]
< 250 | < 250 | Cc1ccc(NS(=O)(=O)c2cnn(C[C@@H](C)CO)c2)c2[nH]cc(C#N)c12 [Compound 264, N-(3-cyano-4-methyl-1H-indol-7-yl)-1-[(2R)-3-hydroxy-2-methyl-propyl]pyrazole-4-sulfonamide]
< 250 | 250 to 1000 | C[C@@H](CO)Cn1cc(S(=O)(=O)Nc2ccc(Cl)c3c(C#N)c[nH]c23)cn1 [Compound 265, N-(4-chloro-3-cyano-1H-indol-7-yl)-1-[(2R)-3-hydroxy-2-methyl-propyl]pyrazole-4-sulfonamide]
< 250 | 250 to 1000 | CCn1ncc(S(=O)(=O)Nc2ccc(F)c3c(C#N)c[nH]c23)c1N [Compound 272, 5-amino-N-(3-cyano-4-fluoro-1H-indol-7-yl)-1-ethyl-pyrazole-4-sulfonamide]
